We go through 1 compound from patent US20230273228A1, “Diagnostic Method and Compounds for the Treatment of Infections Caused by a Pathogen” (priority 2020, published 2023).

Common to all, as to type: in vivo, Golden Syrian Hamster
In experiment [1] the test system is SARS-CoV-2. Description: Viral load determination by quantitative real-time RT-PCR in tissues of infected hamsters.
The subject of another experiment is TNF-α. Description: Cytokine/chemokine profile by qRT-PCR in lung tissues and blood of SARS-CoV-2 infected hamsters. On the technique in general: In qPCR the cycle at which signal appears reflects the starting amount.
Experiment [2] has as its system SARS-CoV-2. Description: Body weight variation of hamsters infected with SARS-CoV-2.

Consider `CC/C=C\C/C=C\C[C@H](O)\C=C/C=C/C=C/[C@H](O)C/C=C\CCC(=O)OC` [MaR1 ME, Methyl 7R,14S-dihydroxy-4Z,8E,10E,12Z,16Z,19Z-docosahexaenoate], for which, in the experiment on SARS-CoV-2 [1], the “Impact on viral load in tissues” value is listed as “significant impact”. Also, in the experiment with SARS-CoV-2 [1] (after a few days of treatment), the “Viral load in the lungs” value was “significantly reduced”. The “Impact on the chemokine and cytokine profile in infected animals” value in the experiment on TNF-α was “significant impact”. In addition, in the experiment with TNF-α (lung tissue, 4, 7 and 14 dpi), the “Levels of TNF-α in the lungs compared with untreated animals” value is on record as “significantly lower”. In the experiment with SARS-CoV-2 [2] (MaR1 ME 0.05 and 0.5 mg/kg i.p. twice daily), the “Improvement in weight loss, dependence on dose” value was “dose dependent”. Also, the “Loss of body weight compared with infected untreated animals” value with SARS-CoV-2 [2] (SARS-CoV-2 infected hamsters, MaR1 ME 0.05 and 0.5 mg/kg i.p., Lipinova 1.20 mg/kg by gavage, twice daily) was “decreases significantly”. Further, in the experiment on SARS-CoV-2 [2] (highest dose of MaR1 ME (0.5 mg/kg i.p. twice daily from day 2 post inoculation), SARS-CoV-2 infected hamsters), the Body weight loss entry was “less than 5%”.
